Experimental data as given in US10208033B2, “β-carboline, dihydro-β-carboline and tetrahydro-β-carboline alkaloid derivatives and preparation methods same and use in aspects of preventing and treating plant viruses, fungicides and insecticides” (NANKAI UNIVERSITY, priority 2013, dated 2019).
Where two headings read alike, the source gives them in different places.

Assays:
armyworms = format: in vivo; conditions: concentration 600 mg/kg
cotton bollworms = experiment: whole plant or invertebrate; conditions: concentration 600 mg/kg
Protocol: Experimental method of cotton bollworms: feed and drug mixing method: measure 3 mL of prepared solution and add it to about 27 g of newly prepared feed, thereby obtaining needed concentration through dilution by 10 times.

Fusarium graminearumt = experiment: microbe, parasite or virus in culture; format: cell-based; conditions: 50 mg/kg
[1] = tested on: tobacco mosaic virus (TMV); experiment: Anti-TMV in vivo inactivation; set-up: species or system tobacco mosaic virus (host Nicotiana tabacum L.cv.Xanthi NN)
Macrophoma kawatsukai = experiment: Fungicidal (bactericidal) activity in vitro, PDA colony diameter; format: cell-based; conditions: 50 mg/kg
Sclerotinia scleotiorum = experiment: as above; format: cell-based; conditions: 50 mg/kg
[2] = tested on: Colletotrichum orbiculare; experiment: as above; format: cell-based; conditions: 50 mg/kg
[3] = tested on: tobacco mosaic virus (TMV); experiment: Anti-TMV in vivo therapeutic effect; set-up: species or system tobacco mosaic virus (host Nicotiana tabacum L.cv.Xanthi NN)
Alternaria solani = experiment: Fungicidal (bactericidal) activity in vitro, PDA colony diameter; format: cell-based; conditions: 50 mg/kg
[4] = tested on: tobacco mosaic virus (TMV); experiment: Anti-TMV in vitro effect (half-leaf soaking); format: cell-based, tobacco mosaic virus (host Nicotiana tabacum L.cv.Xanthi NN)
Rhizoctonia cereali = experiment: Fungicidal (bactericidal) activity in vitro, PDA colony diameter; format: cell-based; conditions: 50 mg/kg
Fusarium fujikuroi = experiment: as above; format: cell-based
cucumber fusarium wilt = experiment: as above; format: cell-based; conditions: 50 mg/kg
corn borers = conditions: concentration 600 mg/kg
mosquito larvae = experiment: whole plant or invertebrate; conditions: concentration 10 mg/kg, 24 h
Procedure, shortened: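 Early fourth-instar Culex pipiens pallens larvae from an indoor colony, 10 per beaker, exposed to test compound at 5 ppm in water, diluted from a 1000 ppm acetone mother solution. Blank: water containing 0.5 mL test solvent.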

Botrytis cinerea = experiment: Fungicidal (bactericidal) activity in vitro, PDA colony diameter; format: cell-based; conditions: 50 mg/kg
Rhizoctonia solani = experiment: as above; format: cell-based; conditions: 50 mg/kg
Bipolaria maydis = experiment: organism not typed; format: cell-based; conditions: 50 mg/kg
potato late blight = experiment: microbe, parasite or virus in culture; format: cell-based
[5] = tested on: tobacco mosaic virus (TMV); experiment: Anti-TMV in vivo protective effect; set-up: species or system tobacco mosaic virus (host Nicotiana tabacum L.cv.Xanthi NN)
Cercospora arachidicola = experiment: Fungicidal (bactericidal) activity in vitro, PDA colony diameter; format: cell-based
Phytophthora capsici = experiment: as above; format: cell-based; conditions: 50 mg/kg

C[C@@H]1N[C@H](C(=O)NN=Cc2ncc[nH]2)Cc2c1[nH]c1ccccc21 [Ic-21, (1S, 3S)—N′-(imidazole-2-methylene)-1-methyl-2,3,4,9-tetrahydropyridino [3,4-b] indol-3-formylhydrazine]
Armyworm Mortality (%) (armyworms): 40% | Cotton bollworm Mortality (%) (cotton bollworms): 45% | Bactericidal activity (%) Fusarium graminearumt (Fusarium graminearumt): 27.6% | Relative inhibition rate (%) In vivo inactivation ([1]; treatment dose 100 μg/mL): 21.3% | Relative inhibition rate (%) In vivo inactivation ([1]; treatment dose 500 μg/mL): 49.6% | Bactericidal activity (%) Macrophoma kawatsukai (Macrophoma kawatsukai): 97.2% | Bactericidal activity (%) Sclerotinia scleotiorum (Sclerotinia scleotiorum): 35.3% | Bactericidal activity (%) Colletotrichum orbiculare [2]: 25.9% | Relative inhibition rate (%) In vivo therapy ([3]; treatment dose 100 μg/mL): 12.6% | Relative inhibition rate (%) In vivo therapy ([3]; treatment dose 500 μg/mL): 45.3% | Bactericidal activity (%) Alternaria solani (Alternaria solani): 15.0% | Relative inhibition rate (%) In vitro activity ([4]; treatment dose 100 μg/mL): 0% | Relative inhibition rate (%) In vitro activity ([4]; treatment dose 500 μg/mL): 42.4% | Bactericidal activity (%) Rhizoctonia cereali (Rhizoctonia cereali): 64.7% | Bactericidal activity (%) Fusarium fujikuroi (Fusarium fujikuroi; 50 mg/kg): 28.6% | Bactericidal activity (%) Cucumber fusarium wilt (cucumber fusarium wilt): 34.6% | Corn borer Mortality (%) (corn borers): 35% | Mosquito larvae Mortality (%) (mosquito larvae): 85% | Bactericidal activity (%) Botrytis cinerea (Botrytis cinerea): 36.4% | Bactericidal activity (%) Rhizoctonia solani (Rhizoctonia solani): 15.8% | Bactericidal activity (%) Bipolaria maydis (Bipolaria maydis): 12.0% | Bactericidal activity (%) potato late blight (potato late blight): 24.0% | Relative inhibition rate (%) In vivo protection ([5]; treatment dose 100 μg/mL): 18.5% | Relative inhibition rate (%) In vivo protection ([5]; treatment dose 500 μg/mL): 48.1% | Bactericidal activity (%) Cercospora arachidicola (Cercospora arachidicola; 50 mg/kg): 47.1% | Bactericidal activity (%) Phytophthora capsici (Phytophthora capsici): 18.4%

CC(=NNC(=O)[C@@H]1Cc2c([nH]c3ccccc23)[C@H](C)N1)c1ccccc1 [Ic-27, (1S, 3S)—N′-(1-phenylethylidene)-1-methyl-2,3,4,9-tetrahydropyridino [3,4-b] indol-3-formylhydrazine]
Armyworm Mortality (%) (armyworms): 20% | Cotton bollworm Mortality (%) (cotton bollworms): 30% | Bactericidal activity (%) Fusarium graminearumt (Fusarium graminearumt): 61.5% | Relative inhibition rate (%) In vivo inactivation ([1]; treatment dose 100 μg/mL): 13.6% | Relative inhibition rate (%) In vivo inactivation ([1]; treatment dose 500 μg/mL): 39.5% | Bactericidal activity (%) Macrophoma kawatsukai (Macrophoma kawatsukai): 39.4% | Bactericidal activity (%) Sclerotinia scleotiorum (Sclerotinia scleotiorum): 11.5% | Bactericidal activity (%) Colletotrichum orbiculare [2]: 52.0% | Relative inhibition rate (%) In vivo therapy ([3]; treatment dose 100 μg/mL): 11.1% | Relative inhibition rate (%) In vivo therapy ([3]; treatment dose 500 μg/mL): 34.8% | Bactericidal activity (%) Alternaria solani (Alternaria solani): 33.3% | Relative inhibition rate (%) In vitro activity ([4]; treatment dose 100 μg/mL): 9.2% | Relative inhibition rate (%) In vitro activity ([4]; treatment dose 500 μg/mL): 30.2% | Bactericidal activity (%) Rhizoctonia cereali (Rhizoctonia cereali): 51.4% | Bactericidal activity (%) Fusarium fujikuroi (Fusarium fujikuroi; 50 mg/kg): 29.4% | Bactericidal activity (%) Cucumber fusarium wilt (cucumber fusarium wilt): 0.0% | Corn borer Mortality (%) (corn borers): 30% | Mosquito larvae Mortality (%) (mosquito larvae): 40% | Bactericidal activity (%) Botrytis cinerea (Botrytis cinerea): 69.4% | Bactericidal activity (%) Rhizoctonia solani (Rhizoctonia solani): 15.3% | Bactericidal activity (%) Bipolaria maydis (Bipolaria maydis): 36.0% | Bactericidal activity (%) potato late blight (potato late blight): 26.1% | Relative inhibition rate (%) In vivo protection ([5]; treatment dose 100 μg/mL): 7.9% | Relative inhibition rate (%) In vivo protection ([5]; treatment dose 500 μg/mL): 37.2% | Bactericidal activity (%) Cercospora arachidicola (Cercospora arachidicola; 50 mg/kg): 36.4% | Bactericidal activity (%) Phytophthora capsici (Phytophthora capsici): 36.4%

C[C@@H]1N[C@H](C(=O)NNC(=O)c2ccncc2)Cc2c1[nH]c1ccccc21 [Id-3, (1S, 3S)—N′-isonicotinoyl-1-methyl-2,3,4,9-tetrahydropyridino [3,4-b] indol-3-formylhydrazine]
Armyworm Mortality (%) (armyworms): 25% | Cotton bollworm Mortality (%) (cotton bollworms): 40% | Bactericidal activity (%) Fusarium graminearumt (Fusarium graminearumt): 53.8% | Relative inhibition rate (%) In vivo inactivation ([1]; treatment dose 100 μg/mL): 17.9% | Relative inhibition rate (%) In vivo inactivation ([1]; treatment dose 500 μg/mL): 45.3% | Bactericidal activity (%) Macrophoma kawatsukai (Macrophoma kawatsukai): 39.4% | Bactericidal activity (%) Sclerotinia scleotiorum (Sclerotinia scleotiorum): 3.8% | Bactericidal activity (%) Colletotrichum orbiculare [2]: 36.0% | Relative inhibition rate (%) In vivo therapy ([3]; treatment dose 100 μg/mL): 11.6% | Relative inhibition rate (%) In vivo therapy ([3]; treatment dose 500 μg/mL): 45% | Bactericidal activity (%) Alternaria solani (Alternaria solani): 14.3% | Relative inhibition rate (%) In vitro activity ([4]; treatment dose 100 μg/mL): 6.4% | Relative inhibition rate (%) In vitro activity ([4]; treatment dose 500 μg/mL): 39.2% | Bactericidal activity (%) Rhizoctonia cereali (Rhizoctonia cereali): 18.9% | Bactericidal activity (%) Fusarium fujikuroi (Fusarium fujikuroi; 50 mg/kg): 29.4% | Bactericidal activity (%) Cucumber fusarium wilt (cucumber fusarium wilt): 13.6% | Corn borer Mortality (%) (corn borers): 25% | Mosquito larvae Mortality (%) (mosquito larvae): 50% | Bactericidal activity (%) Botrytis cinerea (Botrytis cinerea): 55.6% | Bactericidal activity (%) Rhizoctonia solani (Rhizoctonia solani): 15.3% | Bactericidal activity (%) Bipolaria maydis (Bipolaria maydis): 16.0% | Bactericidal activity (%) potato late blight (potato late blight): 26.1% | Relative inhibition rate (%) In vivo protection ([5]; treatment dose 100 μg/mL): 14.2% | Relative inhibition rate (%) In vivo protection ([5]; treatment dose 500 μg/mL): 42.1% | Bactericidal activity (%) Cercospora arachidicola (Cercospora arachidicola; 50 mg/kg): 27.3% | Bactericidal activity (%) Phytophthora capsici (Phytophthora capsici): 15.2%

CC(=O)Oc1ccc2c(c1)[nH]c1c(C)nccc12 [Ia-7, Acetate (1-methylpyridino [3,4-b]indol-7)-ester]
Armyworm Mortality (%) (armyworms): 35% | Cotton bollworm Mortality (%) (cotton bollworms): 30% | Bactericidal activity (%) Fusarium graminearumt (Fusarium graminearumt): 35.7% | Relative inhibition rate (%) In vivo inactivation ([1]; treatment dose 100 μg/mL): 0% | Relative inhibition rate (%) In vivo inactivation ([1]; treatment dose 500 μg/mL): 20.3% | Bactericidal activity (%) Macrophoma kawatsukai (Macrophoma kawatsukai): 5.9% | Bactericidal activity (%) Sclerotinia scleotiorum (Sclerotinia scleotiorum): 76.0% | Bactericidal activity (%) Colletotrichum orbiculare [2]: 33.3% | Relative inhibition rate (%) In vivo therapy ([3]; treatment dose 100 μg/mL): 0% | Relative inhibition rate (%) In vivo therapy ([3]; treatment dose 500 μg/mL): 24.1% | Bactericidal activity (%) Alternaria solani (Alternaria solani): 33.3% | Relative inhibition rate (%) In vitro activity ([4]; treatment dose 100 μg/mL): 0% | Relative inhibition rate (%) In vitro activity ([4]; treatment dose 500 μg/mL): 30% | Bactericidal activity (%) Rhizoctonia cereali (Rhizoctonia cereali): 62.5% | Bactericidal activity (%) Fusarium fujikuroi (Fusarium fujikuroi): 35.7% | Bactericidal activity (%) Cucumber fusarium wilt (cucumber fusarium wilt): 14.3% | Corn borer Mortality (%) (corn borers): 25% | Mosquito larvae Mortality (%) (mosquito larvae): 65% | Bactericidal activity (%) Botrytis cinerea (Botrytis cinerea): 36.4% | Bactericidal activity (%) Rhizoctonia solani (Rhizoctonia solani): 0.0% | Bactericidal activity (%) Bipolaria maydis (Bipolaria maydis): 21.1% | Bactericidal activity (%) potato late blight (potato late blight; 50 mg/kg): 20.0% | Relative inhibition rate (%) In vivo protection ([5]; treatment dose 100 μg/mL): 0% | Relative inhibition rate (%) In vivo protection ([5]; treatment dose 500 μg/mL): 27.2% | Bactericidal activity (%) Cercospora arachidicola (Cercospora arachidicola): 35.7% | Bactericidal activity (%) Phytophthora capsici (Phytophthora capsici): 18.2%
